Experimental data from patent publication US20230104936A1, “TRPML MODULATORS” (Casma Therapeutics, Inc., priority 2019, published 2023).

System: TFEB
Experiment: TFEB nuclear translocation assay, HeLa wt cells
Type: cell-based
Settings: Homo sapiens, HeLa, 2 h, 2 hrs compound treatment, Table 1 does not say HeLa wt or TRPML1 KO
Procedure, shortened: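 Using 20× epifluorescence of fixed, anti-TFEB-stained HeLa wt cells treated 2 hrs with compound, nuclear versus perinuclear ring intensity was quantified over four fields per well, yielding AC50 values.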

## COCS(=O)(=O)c1ccc(S(=O)(=O)Nc2ccccc2N2CCC(c3c(F)cccc3F)CC2)cc1 [Compound A-207, N-{2-[4-(2,6-difluorophenyl)piperidin-1-yl]phenyl}-4-methoxymethanesulfonylbenzene-1-sulfonamide]
  AC50: ≤ 2000 nM

## CNCC1(c2ccc(F)cc2F)CCN(c2ccccc2NS(=O)(=O)c2ccc(S(=O)(=O)N(C)C)cc2)CC1 [Compound A-218, N4-{2-[4-(2,4-difluorophenyl)-4-[(methylamino)methyl]piperidin-1-yl]phenyl}-N1,N1-dimethylbenzene-1,4-disulfonamide]
  AC50: ≤ 2000 nM

## C[C@@H]1COC[C@@H](C)N1CC1CCN(c2c(F)cccc2NS(=O)(=O)c2ccc(S(=N)(=O)N(C)C)cc2)CC1 (stereo partly drawn) [Compound A-835, N-(2-(4-(((3S,5S)-3,5-dimethylmorpholino)methyl)piperidin-1-yl)-3-fluorophenyl)-4-(N,N-dimethylsulfamidimidoyl)benzenesulfonamide]
  AC50: ≤ 2000 nM

## C[C@@H](c1cccc(F)c1N1CCC(F)(F)CC1)S(=O)(=O)c1ccc(S(=N)(=O)N(C)C)cc1 (single isomer, unassigned) [Compound A-936]
  AC50: ≤ 2000 nM

## COc1ccc(S(=O)(=O)Nc2nccnc2N2CCN(c3ncc(Cl)cc3F)CC2)cc1 [Compound A-130, N-{3-[4-(5-chloro-3-fluoropyridin-2-yl)piperazin-1-yl]pyrazin-2-yl}-4-methoxybenzene-1-sulfonamide]
  AC50: ≥ 10000 nM

## CN(C)C1(c2ccc(Cl)cc2F)CCN(c2ccccc2NS(=O)(=O)c2ccc(S(=O)(=O)N(C)C)cc2)CC1 [Compound A-211, N4-{2-[4-(4-chloro-2-fluorophenyl)-4-(dimethylamino)piperidin-1-yl]phenyl}-N1,N1-dimethylbenzene-1,4-disulfonamide]
  AC50: ≤ 2000 nM

## COCC1(C)CCN(c2ccccc2NS(=O)(=O)Cc2cccc(F)c2)CC1 [Compound A-594, 1-(3-fluorophenyl)-N-{2-[4-(methoxymethyl)-4-methylpiperidin-1-yl]phenyl}methanesulfonamide]
  AC50: 2010 to 8000 nM

## CN(C)S(=O)(=O)c1ccc(S(=O)(=O)Nc2nc(N3CCN(c4ccc(Cl)cc4F)CC3)n(C)n2)cc1 [Compound A-59, N1-(5-(4-(4-chloro-2-fluorophenyl)piperazin-1-yl)-1-methyl-1H-1,2,4-triazol-3-yl)-N4,N4-dimethylbenzene-1,4-disulfonamide]
  AC50: ≥ 10000 nM

## CC(c1cccc(F)c1N1CCOCC1)S(=O)(=O)c1ccc2c(c1)CCS2(=O)=O (centres unmarked) [Compound A-957, 5-{1-[3-fluoro-2-(morpholin-4-yl)phenyl]ethanesulfonyl}-2,3-dihydro-1λ^6-benzothiophene-1,1-dione]
  AC50: ≥ 10000 nM

## Cc1ccc(CS(=O)(=O)Nc2ccccc2N2CCN(C(=O)C(C)(C)C)CC2)cc1C [Compound A-486, 1-(3,4-dimethylphenyl)-N-{2-[4-(2,2-dimethylpropanoyl)piperazin-1-yl]phenyl}methanesulfonamide]
  AC50: 2010 to 8000 nM

## O=S(=O)(Nc1ccccc1N1CCN(c2ccc(Cl)cc2F)CC1)c1ccccn1 [Compound A-20, N-{2-[4-(4-chloro-2-fluorophenyl)piperazin-1-yl]phenyl}pyridine-2-sulfonamide]
  AC50: ≤ 2000 nM

## CC1(C)CC2(CCN(c3ccccc3NS(=O)(=O)Cc3cccc(Cl)c3)CC2)CO1 [Compound A-678, 1-(3-chlorophenyl)-N-(2-{3,3-dimethyl-2-oxa-8-azaspiro[4.5]decan-8-yl}phenyl)methanesulfonamide]
  AC50: ≤ 2000 nM

## CN(C)S(=O)(=O)c1ccc(S(=O)(=O)Nc2ccccc2N2CCC(COC(F)(F)F)CC2)cc1 [Compound A-696, N1,N1-dimethyl-N4-(2-{4-[(trifluoromethoxy)methyl]piperidin-1-yl}phenyl)benzene-1,4-disulfonamide]
  AC50: ≤ 2000 nM

## CN(C)S(=O)(=O)c1ccc(S(=O)(=O)Nc2ccccc2N2CCC(O)(C3CC3)CC2)cc1 [Compound A-420, N4-[2-(4-cyclopropyl-4-hydroxypiperidin-1-yl)phenyl]-N1,N1-dimethylbenzene-1,4-disulfonamide]
  AC50: 2010 to 8000 nM
